“Also recorded” adds a separate entry of the source. Read-outs that look alike come from different tables or passages of the source.
Tests used:
[1] = Pharmacokinetics of 8-aminoguanine: plasma disposition; assay type: in vivo; conditions: single bolus 5 mg/kg through the jugular catheter; for half-life: Sprague-Dawley, rat, plasma, intravenous, 5 mg/kg
Description: Rats were anesthetized with urethane (Sigma-Aldrich, St. Louis, MO) at 1.2 g/kg. A continuous infusion of 0.9% sterile saline at 25 ul/min was established via a catheter inserted into the jugular vein. A second catheter to the carotid artery was established in order to collect blood samples (200 μl) which were drawn into a 1 ml syringe prefilled with 50 U heparin. Blood samples were centrifuged at 1300 g for 10 minutes and supernatant (plasma) was then quickly frozen on dry ice and stored at −80° C. until assay. Urine samples were collected by a urethral catheter, centrifuged at 416 g for 10 minutes to remove sediment, and stored as above. Baseline blood samples and urine samples were collected followed by a single bolus of 8-aminoguanine (8-AG, 5 mg/kg) administered through the jugular catheter. Blood samples were collected after 15, 30, 60, 120 and 240 minutes. Urine samples were collected at 1, 2, 4 and 6 hours.
Purines in urine were measured by mass spectrometry using multiple reaction monitoring. Blood samples were diluted 1 to 30 with water, and heavy isotope internal standards were added to each sample. Purines were separated by reversed-phase ultra-performance liquid chromatography (Waters UPLC BEH C18 column, 1.7 μm beads; 2.1×150 mm; Milford, MA) and quantified by multiple reaction monitoring using a triple quadrupole mass spectrometer (TSQ Quantum-Ultra; ThermoFisher Scientific, San Jose, CA) with a heated electrospray ionization source. The mobile phase was a linear gradient flow rate (300 uL/min) of 1% acetic acid in water (pH, 3; mobile phase A) and 100% methanol (mobile phase B), and was delivered with a Waters Acquity ultra-performance liquid chromatographic system. The gradient (A/B) settings were: from 0 to 2 minutes, 99.6%/0.4%; from 2 to 3 minutes, to 98.0%/2.0%; from 3 to 4 minutes, to 85.0%/15.0%; from 4 to 6.5 minutes, to 99.6%/0.4%. […]

[2] = test system: superoxide dismutase (SOD1); assay: SOD1 expression in CYP-CIPN rat peripheral (sciatic) nerves, Western immunoblotting; assay type: in vivo; conditions: 8-AG 5 mg/kg/day in drinking water from 2 weeks prior to CYP
Description: Animals. This study employed female Harlan Sprague Dawley (HSD) rats (3-4 mo; Envigo, Indianapolis, IN) and were divided into the following groups: 1) Control, 2) Cyclophosphamide (CYP, 75 mg/kg i.p. in saline vehicle; administered on days 0, 3 and 6); 3) 8-aminoguanine (8-AG; 5 mg/kg/day in drinking water; beginning 2 weeks prior to CYP and continuing until sacrifice (day 8)). The dose of 8-AG is based on our preliminary and published experiments. […] The investigation conforms to the Guide for the Care and Use of Laboratory Animals published by the US National Institutes of Health (NIH Publication No. 85-23, revised 1996). […]
Western immunoblotting: Following the testing paradigms, rats were deeply anesthetized and tissues (e.g., epidermis, peripheral sciatic nerves, spinal cord segments (L3-L5) and dorsal root ganglia (L3-L5) were removed, and a portion of each preparation was homogenized using Lysing Matrix D in a FASTPREP® 24 instrument (MP Biomedicals, Solon, OH) in HBSS [5 mM KCl, 0.3 mM KH2PO4, 138 mM NaCl, 4 mM NaHO3, 0.3 mM Na2HCO3, 0.3 mM Na2HPO4, 5.6 mM glucose and 10 mM Hepes, pH 7.4 containing complete protease inhibitor cocktail (1 tablet/10 ml, Roche, Indianapolis, IN)] and phosphatase inhibitor cocktail (Sigma, 1:100). […] The protein concentrations of the supernatants were determined using the Pierce BCA protein assay (Thermo Scientific, Rockford, IL). […]

Nc1nc2[nH]c(N)nc2c(=O)[nH]1 [8-AG, 8-Aminoguanine]
half-life ([1]; read-out: half-life of first phase of decay (distribution from plasma into tissues) (converted)): 0.38 h | half-life ([1]; read-out: half-life of second phase (elimination from the body) (converted)): 37 h | plasma disposition ([1]; rat plasma): bi-exponential decay | effect on CYP-induced decrease in SOD1 expression [2]: normalized; also recorded: prevented

— patent publication US20250127787A1, “METHODS FOR TREATING PERIPHERAL NEUROPATHY” (University of Pittsburgh - Of the Commonwealth System of …, priority 2021, published 2025)
